Measured values taken from patent publication US20210355418A1, “ELECTRODE HAVING NANO STRUCTURE AT TIP” (Ion Chat Research Corporate, priority 2018, published 2021).

Key:
Format in all cases: cell-based
[1] = tested on: NG108-15 neurons; assay: Action potential recording with 3-electrode MagEle; settings: 10 uM; cells differentiated by 2% FBS, 10 μM Forskolin
Description: When manufacturing multiple electrodes using MagEle, two types of magnets, a fixed magnet, and an electrode magnet, are used. Wrap the fixed electrodes in a non-conductive material such as parafilm, and attach strip-shaped electrodes made of 2 to 4 pieces of aluminum foil.
This aluminum foil electrode is fixed by magnetic force to the electrode magnet from below, the side surface of the electrode magnet other than facing the cells is wrapped with a non-conductive material such as parafilm to insulate it, and “Clip on ground” is attached above the fixed magnet. A holder for fixing the manipulator is attached (FIG. 20).
Recording was performed from NG108-15 neurons differentiated by 2% FBS, 10 μM Forskolin treatment using the 3-electrode MagEle prepared in (8-1) above (FIG. 22).

[2] = tested on: differentiated NG108-15 cells; assay: Intracellular recording with integrated electrode having nano-protrusion structure at the tip, pressed by manipulator; settings: 10 mM, integrated electrode fixed with manipulator
Protocol: More specifically, 0.5 μl PEI (10 mg/ml), 20 ul gold-coated magnetic nanoparticles (NITmagold Cit manufactured by na noimmunotech), and 5 μl of 5 times the concentration HBPS (final concentration of calcium and magnesium is 1 mM) were mixed. It was kept at room temperature for 30 minutes or more. The recording surface of the magnet electrode is fixed upward, the mixed solution is dropped onto the recording surface, adsorbed by magnetic force, and the solution is evaporated at room temperature (Magele).
As shown in the middle drawing of FIG. 3, the entire side surface of the electrode was inserted into a silicon tube (Tyg on) of an insulator to cover it, and the area in contact with the extracellular fluid was further covered with aluminum foil as a ground material. Through the above process, the integrated electrode of the present invention was produced.
The integrated electrode was pressed onto the differentiated NG108-15 cells using a manipulator (FIG. 2), and the integrated electrode was fixed in a state where the nano-protrusion at the tip penetrated the cell membrane and the cells were not crushed. […]
After activating the differentiated NG108-15 cells with 10 mM glutamate, the intracellular potential was measured with an integrated electrode fixed with a manipulator.

[3] = tested on: NG108-15 cells; assay: Intracellular potential recording of cultured nerve cells with C-M magnet electrode; settings: final external fluid concentration 800 μM; 2 days neural differentiation
Protocol: NG108-15 cells were used for the purpose of showing that recording is possible from cultured nerve cells. NG108-15 cells (neuroblastoma-glioma hybrid cells) were cultured in a culture medium containing DMEM (Sigma-Aldrich), HAT supplement (Thermofisher) and 10% FBS (Biowest). NG108-15 was seeded on a cover glass that was coated with 0.1% Polyethyleneimine (pH8.4, 150 mM Sodium Tetra-Borate (Wako)), and cultured in the culture medium, in which FBS concentration was reduced to 5% from the above culture medium, and the nerve differentiation was induced by adding 500 μM Ibuprofen (Wako). […]
PEI and PEG-gold coated magnetic nanoparticles were mixed and left at room temperature for three hours. This mixed solution is moved to the cell-adhesive surface of the neodymium magnet and left for additional fifteen minutes to magnetically bond the gold nanoparticles to the neodymium magnet electrode. […]
Spontaneous action potentials were recorded by placing C-M electrode on cells seeded on coverslips. […]
In addition to the spontaneous action potential, the following experiment was conducted to confirm whether the neuronal activity by the neurotransmitter glutamate can be recorded. […] Glutamic acid was administered to the extracellular fluid (final external fluid concentration 800 μM), and the response mediated by glutamate receptors was recorded. […]

[4] = tested on: differentiated NG108-15 cells; assay: Intracellular potential measurement by patch clamp method; settings: 10 mM
Protocol: More specifically, a solution containing 2% H.A.T. in DMEM (Sigma-Aldrich) containing 10% FBS (Biowest) was used as the culture medium. According to the literature, in order to differentiate NG108-15 cells into nerve-like cells, FBS in the culture medium is reduced to 2% and the intracellular cAMP concentration is increased by applying the membrane-permeable cAMP (Dibutyryl-cAMP), but in this protocol, it was replaced with 10 uM forskolin. The culture medium was changed at intervals of 2 to 3 days.
This experiment verified that the intracellular potential was induced by glutamate in NG108-15 differentiated cells adjusted in (1-1) using the conventional patch-clamp method.
More specifically, using a glass pipette filled with an intracellular electrolyte solution containing 10 mM glutamate to differentiated NG108-15 cells, the cell membranes were tightly adhered and the glass pipette and cells were electrically integrated.

[5] = tested on: cardiomyocyte-like cells (iCell Cardiomyocyte2); assay: Action potential recording of cardiomyocyte-like cells on conductive glass, charge amplifier (CHAMPL) mode; settings: final concentration 100 μM in physiological saline, room temperature
Protocol: Experiments were conducted using myocardial-like cells (iCell Cardiomyocyte2, CDI) as a typical example of cells with low adhesion efficiency to the surface of conductive glass. In order to improve the adhesiveness, the cells were cultured on the surface of conductive glass coated with collagen (Collagen) in a grid pattern in advance. Gold-coated magnetic nanoparticles were introduced into myocardial-like cells and penetrated the cell membrane by a magnetic field. Sodium channels were activated by sodium channel openers such as veratridine and the resulting action potentials were recorded. This experiment was performed at room temperature. […]
Next, using SLO, gold-coated magnetic nanoparticles were introduced into the cell. […] Two days later, the culture medium was replaced with physiological saline before the experiment, and the action potentials of the cells were recorded at room temperature using the charge amplifier mode (ChargeAmpLifier (CHAMPL) mode) (FIG. 10).
However, since the spontaneous action potential could not be observed in this sample (data not shown), Veratridine (Sigma-Aldrich), which acts as a sodium channel opener, was administered to a final concentration of 100 μM in physiological saline. […] Slow depolarization was observed 40 seconds after Veratridine administration, followed by spontaneous action potentials recorded (FIG. 11).

Q: CC(=O)OCC[N+](C)(C)C [Ach] was tested. Which “activity of nerve cell groups” value [1] did it give?
A: activity of all nerve cell groups was increased

Q: For N[C@@H](CCC(=O)O)C(=O)O [Glutamate, Glutamic acid], which intracellular potential response [2] is on record?
A: Action potentials and slow depolarization were recorded

Q: What about the “membrane potential response mediated by glutamate receptors” value [3] of the same compound?
A: depolarization (upward change) response of the membrane potential

Q: And the “time for membrane potential change to return to baseline” value [3]?
A: about 90 seconds

Q: What about the intracellular potential response [4] of the same compound?
A: induced a slow depolarization and action potentials

Q: How did the “time to slow depolarization after administration” value [5] turn out when COc1ccc(C(=O)O[C@H]2CC[C@@]3(C)[C@@H]4CC[C@H]5[C@]6(O)C[C@H](O)[C@@]7(O)[C@@H](CN8C[C@@H](C)CC[C@H]8[C@@]7(C)O)[C@]6(O)C[C@@]53O[C@]24O)cc1OC [Veratridine] was run?
A: 40 s
